Results: patent publication US8492346B2, “Methods of use of epsilon inhibitor compounds for the attenuation of pain” (KAI Pharmaceuticals, Inc., priority 2007, dated 2013)
Where no end group is shown, it is not given here.

What was measured:
[1] = Chemical stability of cargo/carrier peptide constructs; assay type: physicochemical; details: 9 days of treatment
Description: (§1) The plasma and chemical stability of various cargo/carrier peptide constructs described in Example 1 was tested. Plasma stability of the compounds was tested using both human and rat sera and the amount of starting material was determined after 30 minutes of treatment. Chemical stability was evaluated by determining the amount of starting material remaining after 9 days of treatment.
The chemical stability of various cargo/carrier peptide constructs described in Example 1 was tested by examining the relative concentration of the peptides over a time period of more than 200 hours at 37° C.

[2] = Plasma stability in rat sera; assay type: in vitro ADME; details: 30 minutes
Description: as §1
(§2) The plasma stability of various cargo/carrier peptide constructs described in Example 1 was tested using both human and rat sera and the amount of starting material was determined over time to 30 minutes of treatment. The time course data for cargo/carrier peptides KP-1586, KP-1630, and KP-1631 is shown in FIG. 3, the data for peptides KP-1632, KP-1633, and KP-1634 is shown in FIG. 4, and the data for peptides KP-1635, KP-1636, and KP-1637 is shown in FIG. 5.

[3] = Plasma stability in human sera; assay type: in vitro ADME; details: for remaining at 0.5 h: plasma, human sera, 30 minutes
Description: as §1, §2

[4] = system: carrageenan-induced mechanical hyperalgesia; test: Carrageenan inflammatory pain model, Randall-Selitto paw-withdrawal test; assay type: in vivo, rat
Description: (§3) The nociceptive flexior reflex was quantified on lightly restrained rats by using a Basile Analgesymeter (Randall-Selitto test). Inflammatory hyperlagesia was induced by injection of Carr (1%, 5 uL, i.d.), which was injected unilaterally to the dorsum of the hindpaw one-hour prior to compound administration. The εPKC inhibitor peptide (εV1-2) was injected via systemic routes.
as §3, with “μL,” for “uL,”, “one-hr” for “one-hour”
The rat carrageenan model has been extensively used to evaluate the response to modulators of inflammatory pain. In the model used for the studies described below, a single 5 microL injection of a 1% solution of carrageenan into the plantar surface of the right hindpaw was used to elicit an inflammatory response resulting in local edema and mechanical hyperalgesia. The mechanical hyperalgesia was quantitated as previously described using measurements of the nociceptive flexion reflex (Randall-Selitto paw-withdrawal test) in response to mechanical painful stimulation at the site of carrageenan injection. […] In the absence of further treatment, the PWT remained stable at ˜55 g for several hours, making it possible to use this model to evaluate the time-course of the response to treatment over the course of at least six hours after the establishment of the disease state.

| Compound | remaining at 216 h [1] [%] | remaining at 0.5 h [2] [%] | remaining at 0.5 h [3] [%] | other results |
| --- | --- | --- | --- | --- |
| CC(=O)N[C@@H](CSSC[C@H](NC(C)=O)C(=O)N[C@@H](CCC(=O)O)C(=O)N[C@@H](C)C(=O)N[C@H](C(=O)N[C@@H](CO)C(=O)N[C@@H](CC(C)C)C(=O)N[C@@H](CCCCN)C(=O)N1CCC[C@H]1C(=O)N[C@H](C(N)=O)[C@@H](C)O)C(C)C)C(=O)N[C@@H](Cc1ccc(O)cc1)C(=O)NCC(=O)N[C@@H](CCCNC(=N)N)C(=O)N[C@@H](CCCCN)C(=O)N[C@@H](CCCCN)C(=O)N[C@@H](CCCNC(=N)N)C(=O)N[C@@H](CCCNC(=N)N)C(=O)N[C@@H](CCC(N)=O)C(=O)N[C@@H](CCCNC(=N)N)C(=O)N[C@@H](CCCNC(=N)N)C(=O)N[C@@H](CCCNC(=N)N)C(N)=O [KP-1630, Ac-C-E-A-V-S-L-K-P-T-NH2] | 67 | 77 | 76 | Plasma stability, time course to 30 minutes ([3]; human and rat sera, FIGS. 3-5): little impact on plasma stability |
| CC(=O)N[C@@H](CSSC[C@H](N)C(=O)N[C@@H](CCC(=O)O)C(=O)N[C@@H](C)C(=O)N[C@H](C(=O)N[C@@H](CO)C(=O)N[C@@H](CC(C)C)C(=O)N[C@@H](CCCCN)C(=O)N1CCC[C@H]1C(=O)N[C@H](C(=O)O)[C@@H](C)O)C(C)C)C(=O)N[C@@H](Cc1ccc(O)cc1)C(=O)NCC(=O)N[C@@H](CCCNC(=N)N)C(=O)N[C@@H](CCCCN)C(=O)N[C@@H](CCCCN)C(=O)N[C@@H](CCCNC(=N)N)C(=O)N[C@@H](CCCNC(=N)N)C(=O)N[C@@H](CCC(N)=O)C(=O)N[C@@H](CCCNC(=N)N)C(=O)N[C@@H](CCCNC(=N)N)C(=O)N[C@@H](CCCNC(=N)N)C(N)=O [KP-1586, C-E-A-V-S-L-K-P-T] | 57 | 77 | 85 |  |
| E-A-V-S-L-K-P-T (EAVSLKPT) [εV1-2] |  |  |  | Anti-hyperalgesic effect after surgical sympathectomy ([4]; bilateral lumbar sympathectomy plus suprarenal ganglionectomy 7 days before): completely abolished anti-hyperalgesic effects; Paw-withdrawal threshold (PWT) ([4]; intradermal and subcutaneous injection, FIG. 14): Increases in paw-withdrawal threshold (PWT); Carr-induced mechanical hyperalgesia ([4]; subcutaneous injection, ipsilateral or contralateral hindlimb or dorsal trunk): dose-dependently suppressed Carr-induced mechanical hyperalgesia; Carr-induced mechanical hyperalgesia after nerve transection ([4]; subcutaneous, distal to transection of sciatic and saphenous nerves, contralateral paw): no longer suppression of Carr-induced mechanical hyperalgesia |
| CC(C)C[C@H](NC(=O)[C@H](CO)NC(=O)[C@@H](NC(=O)[C@H](C)NC(=O)[C@H](CCC(=O)O)NC(=O)[C@@H](N)CSSC[C@H](N)C(=O)N[C@@H](Cc1ccc(O)cc1)C(=O)NCC(=O)N[C@@H](CCCNC(=N)N)C(=O)N[C@@H](CCCCN)C(=O)N[C@@H](CCCCN)C(=O)N[C@@H](CCCNC(=N)N)C(=O)N[C@@H](CCCNC(=N)N)C(=O)N[C@@H](CCC(N)=O)C(=O)N[C@@H](CCCNC(=N)N)C(=O)N[C@@H](CCCNC(=N)N)C(=O)N[C@@H](CCCNC(=N)N)C(=O)O)C(C)C)C(=O)N[C@@H](CCCCN)C(=O)N1CCC[C@H]1C(=O)N[C@H](C(=O)O)[C@@H](C)O [KP-1636, C-E-A-V-S-L-K-P-T, reference compound] | 27 | 79 | 79 |  |
| CC(=O)N[C@@H](CSSC[C@@H](NC(=O)[C@@H](CCC(=O)O)NC(=O)[C@@H](C)NC(=O)[C@H](NC(=O)[C@@H](CO)NC(=O)[C@@H](CC(C)C)NC(=O)[C@@H](CCCCN)NC(=O)[C@H]1CCCN1C(=O)[C@H](N)[C@H](C)O)C(C)C)C(=O)O)C(=O)N[C@@H](Cc1ccc(O)cc1)C(=O)NCC(=O)N[C@@H](CCCNC(=N)N)C(=O)N[C@@H](CCCCN)C(=O)N[C@@H](CCCCN)C(=O)N[C@@H](CCCNC(=N)N)C(=O)N[C@@H](CCCNC(=N)N)C(=O)N[C@@H](CCC(N)=O)C(=O)N[C@@H](CCCNC(=N)N)C(=O)N[C@@H](CCCNC(=N)N)C(=O)N[C@@H](CCCNC(=N)N)C(N)=O [KP-1635, t-p-k-l-s-v-a-e-c] | 95 | 72 | 63 |  |
| CC(=O)N[C@@H](CCC(=O)O)C(=O)N[C@@H](C)C(=O)N[C@H](C(=O)N[C@@H](CO)C(=O)N[C@@H](CC(C)C)C(=O)N[C@@H](CCCCN)C(=O)N1CCC[C@H]1C(=O)N[C@H](C(=O)NCC(=O)NCC(=O)NCCCC[C@H](NC(=O)CNC(=O)CNC(=O)[C@@H](NC(=O)[C@@H]1CCCN1C(=O)[C@H](CCCCN)NC(=O)[C@H](CC(C)C)NC(=O)[C@H](CO)NC(=O)[C@@H](NC(=O)[C@H](C)NC(=O)[C@H](CCC(=O)O)NC(C)=O)C(C)C)[C@@H](C)O)C(=O)N[C@@H](CSSC[C@H](NC(C)=O)C(=O)N[C@@H](Cc1ccc(O)cc1)C(=O)NCC(=O)N[C@@H](CCCNC(=N)N)C(=O)N[C@@H](CCCCN)C(=O)N[C@@H](CCCCN)C(=O)N[C@@H](CCCNC(=N)N)C(=O)N[C@@H](CCCNC(=N)N)C(=O)N[C@@H](CCC(N)=O)C(=O)N[C@@H](CCCNC(=N)N)C(=O)N[C@@H](CCCNC(=N)N)C(=O)N[C@@H](CCCNC(=N)N)C(N)=O)C(=O)O)[C@@H](C)O)C(C)C [KP-1634, [Ac-E-A-V-S-L-K-P-T-G-G]-K-C] | 82 | 106 | 87 |  |
| CC(=O)N[C@@H](CSSC[C@H](NC(C)=O)C(=O)N[C@@H](CC(C)C)C(=O)N[C@@H](CCCCN)C(=O)N1CCC[C@H]1C(=O)N[C@H](C(=O)N[C@@H](C)C(=O)N[C@@H](Cc1c[nH]c2ccccc12)C(=O)N[C@@H](CO)C(=O)N[C@@H](CC(C)C)C(=O)N[C@@H](CCCNC(=N)N)C(N)=O)[C@@H](C)O)C(=O)N[C@@H](Cc1ccc(O)cc1)C(=O)NCC(=O)N[C@@H](CCCNC(=N)N)C(=O)N[C@@H](CCCCN)C(=O)N[C@@H](CCCCN)C(=O)N[C@@H](CCCNC(=N)N)C(=O)N[C@@H](CCCNC(=N)N)C(=O)N[C@@H](CCC(N)=O)C(=O)N[C@@H](CCCNC(=N)N)C(=O)N[C@@H](CCCNC(=N)N)C(=O)N[C@@H](CCCNC(=N)N)C(N)=O [KP-1631, Ac-C-L-K-P-T-A-W-S-L-R-NH2] | 76 | 67 | 49 |  |
| CC(=O)N[C@@H](CSSC[C@H](NC(C)=O)C(=O)N[C@@H](CCC(=O)O)C(=O)N[C@@H](C)C(=O)N[C@H](C(=O)N[C@@H](CO)C(=O)N[C@@H](CC(C)C)C(=O)N[C@@H](CCCCN)C(=O)N1CCC[C@H]1C(=O)N[C@H](C(=O)N[C@@H](C)C(=O)N[C@@H](Cc1c[nH]c2ccccc12)C(=O)N[C@@H](CO)C(=O)N[C@@H](CC(C)C)C(=O)N[C@@H](CCCNC(=N)N)C(=O)O)[C@@H](C)O)C(C)C)C(=O)N[C@@H](Cc1ccc(O)cc1)C(=O)NCC(=O)N[C@@H](CCCNC(=N)N)C(=O)N[C@@H](CCCCN)C(=O)N[C@@H](CCCCN)C(=O)N[C@@H](CCCNC(=N)N)C(=O)N[C@@H](CCCNC(=N)N)C(=O)N[C@@H](CCC(N)=O)C(=O)N[C@@H](CCCNC(=N)N)C(=O)N[C@@H](CCCNC(=N)N)C(=O)N[C@@H](CCCNC(=N)N)C(N)=O [KP-1632, Ac-C-E-A-V-S-L-K-P-T-A-W-S-L-R] | 89 | 61 | 54 |  |
| COc1ccc2c(c1)c(CC(=O)O)c(C)n2C(=O)c1ccc(Cl)cc1 [indomethacin, reference compound] |  |  |  | Carrageenan-induced mechanical hyperalgesia ([4]; oral, 10 mg/kg, after end of 5-hr IV infusion of KAI-1678): completely reversed the mechanical hyperalgesia |
| EAVSLKPTGGYGRKKRRQRRR-NH2 [KP-1633, E-A-V-S-L-K-P-T-G-G-TaT-NH2] | 99 | 77 | 83 |  |
| CC(=O)N[C@@H](CCSSCC[C@H](NC(C)=O)C(=O)N[C@@H](CCC(=O)O)C(=O)N[C@@H](C)C(=O)N[C@H](C(=O)N[C@@H](CO)C(=O)N[C@@H](CC(C)C)C(=O)N[C@@H](CCCCN)C(=O)N1CCC[C@H]1C(=O)N[C@H](C(N)=O)[C@@H](C)O)C(C)C)C(=O)N[C@@H](Cc1ccc(O)cc1)C(=O)NCC(=O)N[C@@H](CCCNC(=N)N)C(=O)N[C@@H](CCCCN)C(=O)N[C@@H](CCCCN)C(=O)N[C@@H](CCCNC(=N)N)C(=O)N[C@@H](CCCNC(=N)N)C(=O)N[C@@H](CCC(N)=O)C(=O)N[C@@H](CCCNC(=N)N)C(=O)N[C@@H](CCCNC(=N)N)C(=O)N[C@@H](CCCNC(=N)N)C(=O)O [KP-1638, Ac-hC-E-A-V-S-L-K-P-T-NH2] | 100 |  |  |  |
